We go through 35 molecules from ChEMBL document CHEMBL5393453, “Compositions and methods of using the same for treatment of neurodegenerative and mitochondrial disease” (2021).

Data set [1] relates to HeLa. The experiment in a line: Induction of mitophagy in human HeLa Mito-Keima/YFP-Parkin cells treated with FCCP/oligomycin measured by FACS analysis relative to DMSO. The class given is functional.
A short description of data set [2]: Cytotoxicity against human HeLa cells expressing YFP parkin treated with FCCP/ oligomycin assessed as highest safety dose by DAPI staining analysis. It counts as toxicity, cell-based. The settings on record: read-out: Activity.
Data set [3] in a line: Cytotoxicity against human HeLa cells expressing YFP parkin assessed as highest safety dose by DAPI staining analysis. The class given is toxicity, cell-based. The settings on record: read-out: Activity.
The subject of data set [4] is HeLa. Put plainly: Induction of mitophagy in human HeLa Mito-Keima/YFP-Parkin cells treated with FCCP/oligomycin measured by FACS analysis. The class given is functional, cell-based.
Data set [5] concerns Primary hippocampal neuron. The experiment in a line: Protection against PFFs induced alpha-synuclein fibril formation in C57BL/6 mouse derived primary hippocampal neurons assessed as reduction in phosphorylated S129 alpha-synuclein level at 1.56 to 12.5 uM measured after 6 days. It counts as functional, cell-based. The settings on record: dose 1.56-12.5 µM, time 6.0 day.
The test system of data set [6] is HeLa. Put plainly: Induction of mitophagy in human HeLa Mito-Keima cells treated with FCCP/oligomycin measured by FACS analysis. The class given is functional, cell-based.
Data set [7] relates to HeLa. Put plainly: Induction of mitophagy in human HeLa YFP-Parkin cells treated with FCCP/oligomycin assessed as cells with parkin recruited to mitochondria at 60 mins by FACS analysis. Conditions: 1 h. The class given is functional, cell-based.
Data set [8] can be described thus: Cmax in C57BL/6 mouse at 10 mg/kg, po administered as single dose by mass spectrometry. It counts as ADME, organism-based. Further details: dose 10 mg/kg, route po. Conditions: in vivo.
The nature of data set [9]: Cmax in C57BL/6 mouse at 50 mg/kg, po administered as single dose by mass spectrometry. The class given is ADME, organism-based. Also on record: dose 50 mg/kg, route po. Conditions: in vivo.
Data set [10] is described as follows: AUClast in C57BL/6 mouse at 10 mg/kg, po administered as single dose by mass spectrometry. It counts as ADME, organism-based. Further details: dose 10 mg/kg, route po. Conditions: in vivo.
Data set [11] in a line: AUClast in C57BL/6 mouse at 50 mg/kg, po administered as single dose by mass spectrometry. The class given is ADME, organism-based. The settings on record: in vivo. Also on record: dose 50 mg/kg, route po.
Data set [12] is described as follows: Therapy index in human HeLa Mito-Keima/YFP-Parkin cells treated with FCCP/oligomycin assessed as mitophagy safety margin by DAPI staining analysis. It counts as toxicity, cell-based. The settings on record: read-out: TI.
The test system of data set [13] is Primary hippocampal neuron. The experiment in a line: Protection against PFFs induced alpha-synuclein fibril formation in C57BL/6 mouse derived primary hippocampal neurons assessed as reduction in phosphorylated S129 alpha-synuclein level at 0.1 to 25 uM measured after 6 days. It counts as functional, cell-based. The settings on record: dose 0.1-25 µM, time 6.0 day.

For data set [14], the system named is Primary hippocampal neuron. The experiment in a line: Protection against PFFs induced alpha-synuclein fibril formation in C57BL/6 mouse derived primary hippocampal neurons assessed as reduction in phosphorylated S129 alpha-synuclein (250-12) level at 0.1 to 25 uM measured after 6 days. Conditions: dose 0.1-25 µM, time 6.0 day. The class given is functional, cell-based.

For data set [15], the system named is Primary hippocampal neuron. Put plainly: Protection against PFFs induced alpha-synuclein fibril formation in C57BL/6 mouse derived primary hippocampal neurons assessed as reduction in phosphorylated S129 alpha-synuclein monomer level at 0.1 to 25 uM measured after 6 days. Conditions: dose 0.1-25 µM, time 6.0 day. It counts as functional, cell-based.

The source made the active and inactive calls. The calls are words filed in the database; no cut-off is given here.

With `Fc1ccc2c(c1)CC[C@H](N1CCOCC1)[C@H]2Nc1ncnc2[nH]c(C3CC3)cc12` (single isomer, unassigned), the “fold change (FC)” value in the data set on HeLa [1] was determined as 5.24. Also, the MNTC in data set [2] was 2.8 µM; in [3] it was 25 µM.
For the molecule `COC1CN([C@@H]2CCc3ccccc3[C@H]2Nc2ncnc3[nH]c(C(F)(F)F)cc23)C1`, the EC50 in the data set with HeLa [4] was determined as 28800 nM. Moreover, in [3], the MNTC is 25 µM.
Consider `FC(F)(F)c1cc2c(N[C@@H]3c4ccccc4CC[C@H]3N3CCOCC3)ncnc2[nH]1` (racemic), for which, in the data set on HeLa [1], the “fold change (FC)” value was 9.53. Moreover, the MNTC in [3] turned out to be 13.9 µM.
Consider `FC(F)(F)c1cc2c(N[C@H]3c4ccccc4CC[C@@H]3N3CC4(COC4)C3)ncnc2[nH]1`, for which, in the data set with HeLa [4], the 50% effective concentration (EC50) is 300 nM.
In the case of `FC(F)(F)c1cc2c(NC3CCCc4ccccc43)ncnc2[nH]1` (single isomer, unassigned), the “fold change (FC)” value in the data set with HeLa [1] stood at 4.43. Besides, in data set [5], the result was Active. Further, the EC50 is 371 nM with HeLa [6] and 1740 nM in the data set with HeLa [7]. Besides, the Cmax in data set [8] came out at 0.49 µM; in data set [9], 6.98 µM. Moreover, the AUC(0-t) in data set [10] came out at 1.79 µM·h; in [11], 30.5 µM·h.
Regarding `Fc1ccc2c(c1)CC[C@@H](N1CCOCC1)[C@@H]2Nc1ncnc2[nH]c(C(F)(F)F)cc12` (single isomer, unassigned), the “fold change (FC)” value in the data set with HeLa [1] is 4.67. Moreover, the MNTC in data set [2] and in [3] was 25 µM each time.
For the molecule `FC(F)(F)c1cc2c(N[C@@H]3c4ccccc4CC[C@@H]3N3CCOCC3)ncnc2[nH]1`, in data set [12], the selectivity ratio was less than 10. Also, the MNTC in [3] stood at 16.7 µM.
On to `FC(F)(F)c1cc2c(N[C@H]3c4ccccc4CC[C@@H]3N3C[C@H]4COC[C@H]4C3)ncnc2[nH]1` (single isomer, unassigned), for which, in the data set with HeLa [1], the “fold change (FC)” value was found to be 5.44. Moreover, the MNTC in data set [2] came to 2.8 µM; in [3], 25 µM.
Turning to `COC1CN([C@@H]2COc3ccccc3[C@H]2Nc2ncnc3[nH]c(C(F)(F)F)cc23)C1`, the MNTC amounted to 21.4 µM in data set [2] and 25 µM in [3]. Moreover, the outcome in data set [13], in [14] and in data set [15] was Active.
As to `FC(F)(F)c1cc2c(N[C@@H]3c4ccccc4CC[C@H]3N3C[C@H]4COC[C@H]4C3)ncnc2[nH]1` (single isomer, unassigned), the values for the MNTC in data set [2] and in data set [3] were 9.1 µM and 25 µM, respectively.
For `COC1CN([C@H]2COc3ccccc3[C@@H]2Nc2ncnc3[nH]c(C4CC4)cc23)C1`, the MNTC in data set [2] and in data set [3] was 25 µM each time.
As to `[2H]C([2H])([2H])OC1CN([C@H]2COc3ccccc3[C@@H]2Nc2ncnc3[nH]c(C(F)(F)F)cc23)C1`, the MNTC in data set [2] came to 19.8 µM; in [3] it was 25 µM.
For `FC(F)(F)c1cc2c(NC3c4ccccc4OCC3N3C[C@H]4COC[C@@H]4C3)ncnc2[nH]1` (stereo not given in full), in that order: 25 µM and 25 µM.
In the same order, the values of `c1ccc2c(c1)OC[C@@H](C1CCOCC1)[C@@H]2Nc1ncnc2[nH]c(C3CC3)cc12` are 3.2 µM and 25 µM.
In the same order, the values of `C[C@@H]1CN([C@@H]2COc3ccccc3[C@H]2Nc2ncnc3[nH]c(C4CC4)cc23)CCO1` are 1.7 µM and 25 µM.
As to `FC(F)(F)c1cc2c(N[C@H]3c4ccccc4OC[C@@H]3C3CCOCC3)ncnc2[nH]1` (single isomer, unassigned), the MNTC in [2] and in [3] was 25 µM throughout.
For the molecule `COC[C@H]1CCN([C@H]2COc3ccccc3[C@@H]2Nc2ncnc3[nH]c(C(F)(F)F)cc23)C1` (single isomer, unassigned), the results for the MNTC in data set [2] and in data set [3] were 4.5 µM and 25 µM, respectively.
For `COC1CN([C@H]2COc3ccccc3[C@@H]2Nc2ncnc3[nH]c(C(F)(F)F)cc23)C1`, in that order: 8.3 µM and 8.3 µM.
In the case of `COC1CN([C@H]2CCc3ccccc3[C@@H]2Nc2ncnc3[nH]c(C(F)(F)F)cc23)C1`, the MNTC in [2] and in data set [3] was 8.3 µM each time. Also, the result in [13], in [14] and in data set [15] was Active.
For the molecule `FC(F)(F)c1cc2c(N[C@H]3c4ccccc4CC[C@@H]3N3CC4(CCOCC4)C3)ncnc2[nH]1` (single isomer, unassigned), the “fold change (FC)” value in the data set on HeLa [1] is 3.95.
On the same count and under the same terms, the same measure for `FC(F)(F)c1cc2c(N[C@@H]3c4ccccc4CC[C@H]3N3CCOCC3)ncnc2[nH]1` (single isomer, unassigned): 7.78.
Turning to `COC[C@H]1CCN([C@H]2COc3ccccc3[C@@H]2Nc2ncnc3[nH]c(C4CC4)cc23)C1`, the values for the MNTC in data set [2] and in [3] were 3.6 µM and 25 µM, respectively.
For the molecule `C[C@H]1CN([C@H]2CCc3ccccc3[C@@H]2Nc2ncnc3[nH]c(C(F)(F)F)cc23)CCO1` (single isomer, unassigned), the MNTC in data set [2] came to 9.1 µM; in data set [3], 25 µM. In addition, the result in [13], in data set [14] and in [15] was Active.
With `Fc1ccc2c(c1)OC[C@@H](N1C[C@H]3COC[C@H]3C1)[C@@H]2Nc1ncnc2[nH]c(C3CC3)cc12`, the MNTC in [2] stood at 16 µM; in data set [3], 25 µM.
On to `C[C@@H]1CN([C@@H]2COc3ccccc3[C@H]2Nc2ncnc3[nH]c(C(F)(F)F)cc23)CCO1`, for which the MNTC came out at 9.7 µM in [2] and 25 µM in data set [3].
In the same order, the values of `Fc1ccc2c(c1)CC[C@H](N1C[C@H]3COC[C@H]3C1)[C@H]2Nc1ncnc2[nH]c(C3CC3)cc12` are 10.3 µM and 25 µM.
For `c1ccc2c(c1)OC[C@H](C1CCOCC1)[C@H]2Nc1ncnc2[nH]c(C3CC3)cc12` (single isomer, unassigned), the MNTC is 21.5 µM in data set [2] and 25 µM in [3]. Also, the result in data set [13], in data set [14] and in data set [15] was Active.
On to `FC(F)(F)c1cc2c(N[C@@H]3c4ccccc4OC[C@@H]3C3CCCOC3)ncnc2[nH]1` (single isomer, unassigned), for which the MNTC in data set [2] and in data set [3] was 25 µM in each case.
For `C[C@H]1CN([C@H]2CCc3ccccc3[C@@H]2Nc2ncnc3[nH]c(C4CC4)cc23)CCO1` (single isomer, unassigned), the MNTC in data set [2] was determined as 3.5 µM; in data set [3] it was 25 µM.
Regarding `Fc1ccc2c(c1)CC[C@H](N1CCOCC1)[C@H]2Nc1ncnc2[nH]c(C(F)(F)F)cc12` (single isomer, unassigned), the “fold change (FC)” value in the data set on HeLa [1] came out at 5.11. Moreover, the MNTC in data set [2] is 8.3 µM; in data set [3] it was 25 µM.
`FC(F)(F)c1cc2c(N[C@H]3c4ccccc4CC[C@@H]3N3CCOCC3)ncnc2[nH]1` (single isomer, unassigned): the “fold change (FC)” value with HeLa [1] is on record as 9.78. Moreover, the selectivity ratio in [12] was more than 30. For the same molecule, the result in data set [5] was Active.
For the molecule `Fc1ccc2c(c1)CC[C@@H](N1C[C@H]3COC[C@H]3C1)[C@@H]2Nc1ncnc2[nH]c(C(F)(F)F)cc12` (single isomer, unassigned), the MNTC in data set [2] and in data set [3] was 8.3 µM in each case.
For `FC(F)(F)c1cc2c(N[C@@H]3c4ccccc4OC[C@H]3C3CCOCC3)ncnc2[nH]1` (single isomer, unassigned), the values for the MNTC in data set [2] and in data set [3] were 4.7 µM and 25 µM, respectively.
Take `c1ccc2c(c1)CC[C@H](N1CCOCC1)[C@H]2Nc1ncnc2[nH]c(C3CC3)cc12`: the results for the MNTC in data set [2] and in [3] were 2.8 µM and 25 µM, respectively.
In the same order, the values of `COC[C@@H]1CCN([C@H]2COc3ccccc3[C@@H]2Nc2ncnc3[nH]c(C(F)(F)F)cc23)C1` (single isomer, unassigned) are 3.3 µM and 25 µM.
